Where “and” joins values, the source holds several entries; their conditions need not be identical. Equal entries are not always repeated.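 Results reflect a 48-hour exposure of cells in 96-well plates to compound at five concentrations. At the GI50, growth is halved. The concentration for full growth arrest is given as TGI.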
Test system: A498 renal
Assay: DTP human tumour cell line panel, 48 h

Compound	GI50 [µM]	TGI [µM]
COc1ccccc1CNCCCN1C(=O)c2ccc3c4c(ccc(c24)C1=O)C(=O)N(CCCOCCCCOCCCN)C3=O	1.3	2.7
CCOC(=O)[C@@H](N)CCC(=O)N[C@@H](CSCc1ccccc1)C(=O)N[C@@H](C(=O)OCC)c1ccccc1	17.2	38.8
COc1ccc(Nc2c3ccccc3nc3occc23)cc1	4.5	21.8
CC(=O)/C(C)=N/NC(=O)c1ccccc1O	> 10	> 100
CCCCCCCC/C=C/CCCCCCCC(=O)OC[C@H]1O[C@@H](n2ccc(N)nc2=O)C(F)(F)[C@@H]1O	< 0.0218	6.32
NS(=O)(=O)c1ccc(N=Nc2c(O)[nH]c3ccc(-c4cnco4)cc23)cc1	> 25	> 25
N#C/C(=C1C=C(Br)/C(=N\O)C=C\1Cl)c1cccc2ccccc12		21.5
COc1cc2nc3cc([N+](=O)[O-])ccc3c(NCCCNCCO)c2cc1OC	0.214	0.527
COC(=O)[C@@H](C)CNS(=O)(=O)N(c1cc(C(F)(F)F)cc(C(F)(F)F)c1)C1CCN(Cc2ccc(F)cc2)CC1	12.8	26.2
C=C1C(=O)O[C@@H]2/C=C(\C)CC/C=C(/COC(C)=O)C[C@@H](OC(C)=O)[C@@H]12		36.6
COC(=O)[C@H](C)NC(=O)NC(=O)NC(=O)CI	15.4	30.4
COc1cc2c(c(OC)c1OC)-c1ccc(OC)c(=O)cc1[C@@H](NC(=O)c1ccccc1)CC2	< 0.003	
CN1c2ccc(Cl)cc2C(=O)NC1c1ccc([N+](=O)[O-])s1 (stereo not drawn)		32.8

Test system: MDA-MB-435
Assay: DTP human tumour cell line panel, 48 h

Compound	GI50 [µM]	TGI [µM]
CN1CCN(CCCOc2ccc3nc(Nc4ccc(Cl)c(C(F)(F)F)c4)ccc3c2)CC1	11.7	24.2
CC(C)n1nc(-c2cc3cc(O)ccc3[nH]2)c2c(N)ncnc21	0.219	1.77
CCCCC(O)(c1ccc(Cl)cc1)C(CN1CCOCC1)c1ccc(Cl)cc1 (stereo not drawn)	15.3	39
OC[C@H]1CCCC1O (stereo partly drawn)		> 100
O=C(N/N=C/c1ccc(Cl)cc1)c1ccc(C(F)(F)F)nc1Nc1cccc(C(F)(F)F)c1	3.17	20.1
COc1cc2ncnc(Nc3ccc(C)c(O)c3)c2cc1OC	> 25	> 25
O=C1OC(C(O)CO)C(=O)C1=O (stereo not drawn)	2120	4290
COC(=O)C1=CNC=C(C(=O)OC)C1C1=CC(=O)C(C)=CC1=O	15.9	29.5
C=C1C(=O)O[C@H]2[C@H]1CC/C(COC(=O)C(=O)c1cn(Cc3ccccc3)c3ccccc13)=C\CC[C@@]1(C)O[C@@H]21	2.41	7.77
Cc1cc(S(=O)(=O)Nc2nnc(-c3ccccc3)c(-c3ccccc3)n2)c(SCC(N)=O)cc1Cl	51.5	> 100
COc1ccc(/C=C/c2ccnc3ccccc23)c(OC)c1		5.09
COC(C(O)CO)C(O)C(O)C(=O)NNc1ccccc1 (stereo not drawn)		> 100
NS(=O)(=O)c1ccc(NC2(C(=O)O)CCCC2)cc1		> 100
O=C(O)C1OC(n2cc(F)c(=O)[nH]c2=O)CC1O (stereo not drawn)		> 100
N=C1C(c2nc3ccccc3s2)=C(O)CN1c1cc(C(F)(F)F)ccc1Cl	4.14	36.1
CC(=O)CSCc1ccccn1		> 100
COc1ccccc1CNCCCN1C(=O)c2ccc3c4c(ccc(c24)C1=O)C(=O)N(CCCOCCCCOCCCN)C3=O	0.2	0.429
CCOC(=O)[C@@H](N)CCC(=O)N[C@@H](CSCc1ccccc1)C(=O)N[C@@H](C(=O)OCC)c1ccccc1	16.5	32.4
COc1ccc(Nc2c3ccccc3nc3occc23)cc1	0.171	
CC(=O)/C(C)=N/NC(=O)c1ccccc1O		> 100
CCCCCCCC/C=C/CCCCCCCC(=O)OC[C@H]1O[C@@H](n2ccc(N)nc2=O)C(F)(F)[C@@H]1O	< 0.0266	> 100
NS(=O)(=O)c1ccc(N=Nc2c(O)[nH]c3ccc(-c4cnco4)cc23)cc1	> 25	> 25
N#C/C(=C1C=C(Br)/C(=N\O)C=C\1Cl)c1cccc2ccccc12		10.4
COc1cc2nc3cc([N+](=O)[O-])ccc3c(NCCCNCCO)c2cc1OC	0.179	0.336
COC(=O)[C@@H](C)CNS(=O)(=O)N(c1cc(C(F)(F)F)cc(C(F)(F)F)c1)C1CCN(Cc2ccc(F)cc2)CC1	10.2	24.8
C=C1C(=O)O[C@@H]2/C=C(\C)CC/C=C(/COC(C)=O)C[C@@H](OC(C)=O)[C@@H]12		54.4
COC(=O)[C@H](C)NC(=O)NC(=O)NC(=O)CI	10.3	23.5
COc1cc2c(c(OC)c1OC)-c1ccc(OC)c(=O)cc1[C@@H](NC(=O)c1ccccc1)CC2	< 0.003	< 0.003
CN1c2ccc(Cl)cc2C(=O)NC1c1ccc([N+](=O)[O-])s1 (stereo not drawn)		31.4

Test system: SW-620 colon
Assay: DTP human tumour cell line panel, 48 h

Compound	GI50 [µM]	TGI
CN1CCN(CCCOc2ccc3nc(Nc4ccc(Cl)c(C(F)(F)F)c4)ccc3c2)CC1	8.97	22.1 µM
CC(C)n1nc(-c2cc3cc(O)ccc3[nH]2)c2c(N)ncnc21	1.31	14.2 µM
CCCCC(O)(c1ccc(Cl)cc1)C(CN1CCOCC1)c1ccc(Cl)cc1 (stereo not drawn)	11.5	25.3 µM
OC[C@H]1CCCC1O (stereo partly drawn)		> 100 µM
O=C(N/N=C/c1ccc(Cl)cc1)c1ccc(C(F)(F)F)nc1Nc1cccc(C(F)(F)F)c1	1.45	10.4 µM
COc1cc2ncnc(Nc3ccc(C)c(O)c3)c2cc1OC	> 25	> 25 µM
O=C1OC(C(O)CO)C(=O)C1=O (stereo not drawn)	2070	5080 µM
COC(=O)C1=CNC=C(C(=O)OC)C1C1=CC(=O)C(C)=CC1=O	8.43	22.2 µM
C=C1C(=O)O[C@H]2[C@H]1CC/C(COC(=O)C(=O)c1cn(Cc3ccccc3)c3ccccc13)=C\CC[C@@]1(C)O[C@@H]21	2.33	7.77 µM
Cc1cc(S(=O)(=O)Nc2nnc(-c3ccccc3)c(-c3ccccc3)n2)c(SCC(N)=O)cc1Cl	41.5	> 100 µM
COc1ccc(/C=C/c2ccnc3ccccc23)c(OC)c1		> 10 µM
COC(C(O)CO)C(O)C(O)C(=O)NNc1ccccc1 (stereo not drawn)		> 100 µM
NS(=O)(=O)c1ccc(NC2(C(=O)O)CCCC2)cc1		> 100 µM
O=C(O)C1OC(n2cc(F)c(=O)[nH]c2=O)CC1O (stereo not drawn)		> 100 µM
N=C1C(c2nc3ccccc3s2)=C(O)CN1c1cc(C(F)(F)F)ccc1Cl	36.4	> 100 µM
CC(=O)CSCc1ccccn1		> 100 µM
COc1ccccc1CNCCCN1C(=O)c2ccc3c4c(ccc(c24)C1=O)C(=O)N(CCCOCCCCOCCCN)C3=O	0.357	1.54 µM
CCOC(=O)[C@@H](N)CCC(=O)N[C@@H](CSCc1ccccc1)C(=O)N[C@@H](C(=O)OCC)c1ccccc1	20.7	49.2 µM
COc1ccc(Nc2c3ccccc3nc3occc23)cc1	2.9	39.5 µM
CC(=O)/C(C)=N/NC(=O)c1ccccc1O	> 100	> 100 µM
CCCCCCCC/C=C/CCCCCCCC(=O)OC[C@H]1O[C@@H](n2ccc(N)nc2=O)C(F)(F)[C@@H]1O	0.0759	> 100 µM
NS(=O)(=O)c1ccc(N=Nc2c(O)[nH]c3ccc(-c4cnco4)cc23)cc1	9.91	> 25 µM
N#C/C(=C1C=C(Br)/C(=N\O)C=C\1Cl)c1cccc2ccccc12		25.5 µM
COc1cc2nc3cc([N+](=O)[O-])ccc3c(NCCCNCCO)c2cc1OC	0.21	1.03 µM
COC(=O)[C@@H](C)CNS(=O)(=O)N(c1cc(C(F)(F)F)cc(C(F)(F)F)c1)C1CCN(Cc2ccc(F)cc2)CC1	11.1	24.9 µM
C=C1C(=O)O[C@@H]2/C=C(\C)CC/C=C(/COC(C)=O)C[C@@H](OC(C)=O)[C@@H]12		15.4 µM
COC(=O)[C@H](C)NC(=O)NC(=O)NC(=O)CI	16.5	34.4 µM
COc1cc2c(c(OC)c1OC)-c1ccc(OC)c(=O)cc1[C@@H](NC(=O)c1ccccc1)CC2	< 0.003	30 µM and > 81.4 µM
CN1c2ccc(Cl)cc2C(=O)NC1c1ccc([N+](=O)[O-])s1 (stereo not drawn)		> 100 µM

Source: PubChem BioAssay (NCI)
